In patent publication US9732119B2, “Immunomodulators” (BRISTOL-MYERS SQUIBB COMPANY, priority 2014, dated 2017):
Positions of bridges follow the written chain, without caps; N, C: chain ends. Non-standard residues stand in square brackets, D forms with d. Residues, ends and D or L forms follow the SMILES beside them. Trp(1-CH2COOH) = N[C@@H](Cc1cn(CC(=O)O)c2ccccc12)C(=O)O; Phe(4-Cl) = N[C@@H](Cc1ccc(Cl)cc1)C(=O)O; Phe(4-F) = N[C@@H](Cc1ccc(F)cc1)C(=O)O; Phe(4-Me) = Cc1ccc(C[C@H](N)C(=O)O)cc1; Hyp = O=C(O)[C@@H]1C[C@@H](O)CN1; Aad = N[C@@H](CCCC(=O)O)C(=O)O; NMeNle = CCCC[C@H](NC)C(=O)O; Pip = O=C(O)[C@@H]1CCCCN1; Orn = NCCC[C@H](N)C(=O)O; Dab = NCC[C@H](N)C(=O)O; Dap = NC[C@H](N)C(=O)O; Ava = NCCCCC(=O)O

Molecular target: T1, PD-1-Ig binding to PD-L1-TVMV-His (PD-L1-His) (Homo sapiens, UniProt Q9NZQ7)
T1 construct: hPDL1(19-239)-TVMV-His; made in house; host or cells: HEK293T cells
Experiment: PD-1/PD-L1 Homogenous Time-Resolved Fluorescence (HTRF) binding assay
Conditions: PD-1-Ig (20 nM) / PD-L1-His (10 nM); numeric values
Outline: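 HTRF competition: compound pre-incubated 15 min with PD-L1-His (10 nM final), then PD-1-Ig (20 nM final) added for 15 min in dPBS, 0.1% BSA, 0.05% Tween-20. Detection with Eu-cryptate anti-Ig (1 nM) and APC anti-His (20 nM) antibodies.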

T1 sequence (Q9NZQ7 with tags, fused parts or gaps): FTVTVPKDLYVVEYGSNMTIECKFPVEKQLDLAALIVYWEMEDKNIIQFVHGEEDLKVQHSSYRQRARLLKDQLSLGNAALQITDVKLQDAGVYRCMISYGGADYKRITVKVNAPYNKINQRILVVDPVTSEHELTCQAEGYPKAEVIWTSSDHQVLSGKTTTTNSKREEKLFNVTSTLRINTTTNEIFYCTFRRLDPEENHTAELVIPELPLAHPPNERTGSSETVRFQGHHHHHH

| IC50 [nM] | Compound |
| --- | --- |
| 8 | CCCC[C@H]1C(=O)N(C)[C@@H](CCCC)C(=O)N[C@@H](CC(C)C)C(=O)NCCC[C@H](N)C(=O)N[C@@H](Cc2ccc(Cl)cc2)C(=O)N2CCCC[C@H]2C(=O)N[C@@H](CC(N)=O)C(=O)N2CCC[C@H]2C(=O)N[C@@H](CN)C(=O)N[C@@H](CC(C)C)C(=O)N2C[C@H](O)C[C@H]2C(=O)N[C@@H](Cc2c[nH]c3ccccc23)C(=O)N[C@@H](CCN)C(=O)N[C@@H](Cc2cn(CC(=O)O)c3ccccc23)C(=O)N1C [Example 10545] (H-[Orn][Phe(4-Cl)][Pip]NP[Dap]L[Hyp]W[Dab][Trp(1-CH2COOH)][NMeNle][NMeNle]L; lactam 1-C) |

Same assay, conditions: PD-1-Ig (20 nM) / PD-L1-His (10 nM); range classes

| IC50 [nM] | Compound |
| --- | --- |
| 1 to 9.9 | CCCC[C@H]1C(=O)N(C)[C@@H](CCCC)C(=O)N[C@@H](CC(C)C)C(=O)N[C@H](C(N)=O)CCCC(=O)N[C@@H](Cc2ccc(F)cc2)C(=O)N2CCCC[C@H]2C(=O)N[C@@H](CC(N)=O)C(=O)N2CCC[C@H]2C(=O)N[C@@H](CN)C(=O)N[C@@H](CCC(=O)O)C(=O)N2C[C@H](O)C[C@H]2C(=O)N[C@@H](Cc2c[nH]c3ccccc23)C(=O)N[C@@H](CCN)C(=O)N[C@@H](Cc2cn(CC(=O)O)c3ccccc23)C(=O)N1C [Example 10532] ([Phe(4-F)][Pip]NP[Dap]E[Hyp]W[Dab][Trp(1-CH2COOH)][NMeNle][NMeNle]L[Aad]-NH2; lactam N-14) |
| 1 to 9.9 | CCCC[C@H]1C(=O)N(C)[C@@H](CCCC)C(=O)N[C@@H](CC(C)C)C(=O)N[C@H](C(N)=O)COCC(=O)N[C@@H](Cc2ccc(O)cc2)C(=O)N2CCCC[C@H]2C(=O)N[C@@H](CC(N)=O)C(=O)N2CCC[C@H]2C(=O)N[C@@H](CN)C(=O)N[C@@H](CC(C)C)C(=O)N2C[C@H](O)C[C@H]2C(=O)N[C@@H](Cc2c[nH]c3ccccc23)C(=O)N[C@@H](CCN)C(=O)N[C@@H](Cc2cn(CC(=O)O)c3ccccc23)C(=O)N1C [Example 10533] |
| 1 to 9.9 | CCCC[C@H]1C(=O)N(C)[C@@H](CCCC)C(=O)N[C@@H](CC(C)C)C(=O)N[C@H](C(N)=O)CCCC(=O)N[C@@H](Cc2ccc(Cl)cc2)C(=O)N2CCCC[C@H]2C(=O)N[C@@H](CC(N)=O)C(=O)N2CCC[C@H]2C(=O)N[C@@H](CN)C(=O)N[C@@H](CC(C)C)C(=O)N2C[C@H](O)C[C@H]2C(=O)N[C@@H](Cc2c[nH]c3ccccc23)C(=O)N[C@@H](CCN)C(=O)N[C@@H](Cc2cn(CC(=O)O)c3ccccc23)C(=O)N1C [Example 10534] ([Phe(4-Cl)][Pip]NP[Dap]L[Hyp]W[Dab][Trp(1-CH2COOH)][NMeNle][NMeNle]L[Aad]-NH2; lactam N-14) |
| 1 to 9.9 | CCCC[C@H]1C(=O)N(C)[C@@H](CCCC)C(=O)N[C@@H](CC(C)C)C(=O)NCCCCC(=O)N[C@@H](Cc2ccc(OC)cc2)C(=O)N2CCCC[C@H]2C(=O)N[C@@H](CC(N)=O)C(=O)N2CCC[C@H]2C(=O)N[C@@H](CN)C(=O)N[C@@H](CC(C)C)C(=O)N2C[C@H](O)C[C@H]2C(=O)N[C@@H](Cc2c[nH]c3ccccc23)C(=O)N[C@@H](CCN)C(=O)N[C@@H](Cc2cn(CC(=O)O)c3ccccc23)C(=O)N1C [Example 10535] (cyclo([Ava]Y(Me)[Pip]NP[Dap]L[Hyp]W[Dab][Trp(1-CH2COOH)][NMeNle][NMeNle]L)) |
| 1 to 9.9 | CCCC[C@H]1C(=O)N(C)[C@@H](CCCC)C(=O)N[C@@H](CC(C)C)C(=O)NCCCCC(=O)N[C@@H](Cc2ccc(F)cc2)C(=O)N2CCCC[C@H]2C(=O)N[C@@H](CC(N)=O)C(=O)N2CCC[C@H]2C(=O)N[C@@H](CN)C(=O)N[C@@H](CC(C)C)C(=O)N2C[C@H](O)C[C@H]2C(=O)N[C@@H](Cc2c[nH]c3ccccc23)C(=O)N[C@@H](CCN)C(=O)N[C@@H](Cc2cn(CC(=O)O)c3ccccc23)C(=O)N1C [Example 10536] (cyclo([Ava][Phe(4-F)][Pip]NP[Dap]L[Hyp]W[Dab][Trp(1-CH2COOH)][NMeNle][NMeNle]L)) |
| 10 to 99 | CCCC[C@H]1C(=O)N(C)[C@@H](CCCC)C(=O)N[C@@H](CC(C)C)C(=O)NCCCCC(=O)N[C@@H](Cc2ccc(Cl)cc2)C(=O)N2CCCC[C@H]2C(=O)N[C@@H](CC(N)=O)C(=O)N2CCC[C@H]2C(=O)N[C@@H](CN)C(=O)N[C@@H](CC(C)C)C(=O)N2C[C@H](O)C[C@H]2C(=O)N[C@@H](Cc2c[nH]c3ccccc23)C(=O)N[C@@H](CCN)C(=O)N[C@@H](Cc2cn(CC(=O)O)c3ccccc23)C(=O)N1C [Example 10537] (cyclo([Ava][Phe(4-Cl)][Pip]NP[Dap]L[Hyp]W[Dab][Trp(1-CH2COOH)][NMeNle][NMeNle]L)) |
| 1 to 9.9 | CCCC[C@H]1C(=O)N(C)[C@@H](CCCC)C(=O)N[C@@H](CC(C)C)C(=O)N[C@H](C(N)=O)COCC(=O)N[C@@H](Cc2ccc(C)cc2)C(=O)N2CCCC[C@H]2C(=O)N[C@@H](CC(N)=O)C(=O)N2CCC[C@H]2C(=O)N[C@@H](CN)C(=O)N[C@@H](CCC(=O)O)C(=O)N2C[C@H](O)C[C@H]2C(=O)N[C@@H](Cc2c[nH]c3ccccc23)C(=O)N[C@@H](CCN)C(=O)N[C@@H](Cc2cn(CC(=O)O)c3ccccc23)C(=O)N1C [Example 10538] |
| 1 to 9.9 | CCCC[C@H]1C(=O)N(C)[C@@H](CCCC)C(=O)N[C@@H](CC(C)C)C(=O)NCCCCC(=O)N[C@@H](Cc2ccc(C)cc2)C(=O)N2CCCC[C@H]2C(=O)N[C@@H](CC(N)=O)C(=O)N2CCC[C@H]2C(=O)N[C@@H](CN)C(=O)N[C@@H](CC(C)C)C(=O)N2C[C@H](O)C[C@H]2C(=O)N[C@@H](Cc2c[nH]c3ccccc23)C(=O)N[C@@H](CCN)C(=O)N[C@@H](Cc2cn(CC(=O)O)c3ccccc23)C(=O)N1C [Example 10540] (cyclo([Ava][Phe(4-Me)][Pip]NP[Dap]L[Hyp]W[Dab][Trp(1-CH2COOH)][NMeNle][NMeNle]L)) |
| 1 to 9.9 | CCCC[C@H]1C(=O)N(C)[C@@H](CCCC)C(=O)N[C@@H](CC(C)C)C(=O)NCCCCC(=O)N[C@@H](Cc2ccc(C)cc2)C(=O)N2CCCC[C@H]2C(=O)N[C@@H](CC(N)=O)C(=O)N2CCC[C@H]2C(=O)N[C@@H](CN)C(=O)N[C@@H](CCC(=O)O)C(=O)N2C[C@H](O)C[C@H]2C(=O)N[C@@H](Cc2c[nH]c3ccccc23)C(=O)N[C@@H](CCN)C(=O)N[C@@H](Cc2cn(CC(=O)O)c3ccccc23)C(=O)N1C [Example 10541] (cyclo([Ava][Phe(4-Me)][Pip]NP[Dap]E[Hyp]W[Dab][Trp(1-CH2COOH)][NMeNle][NMeNle]L)) |
| 1 to 9.9 | CCCC[C@H]1C(=O)N(C)[C@@H](CCCC)C(=O)N[C@@H](CC(C)C)C(=O)NCCCCC(=O)N[C@@H](Cc2ccc(OC)cc2)C(=O)N2CCCC[C@H]2C(=O)N[C@@H](CC(N)=O)C(=O)N2CCC[C@H]2C(=O)N[C@@H](CN)C(=O)N[C@@H](CCC(=O)O)C(=O)N2C[C@H](O)C[C@H]2C(=O)N[C@@H](Cc2c[nH]c3ccccc23)C(=O)N[C@@H](CCN)C(=O)N[C@@H](Cc2cn(CC(=O)O)c3ccccc23)C(=O)N1C [Example 10542] (cyclo([Ava]Y(Me)[Pip]NP[Dap]E[Hyp]W[Dab][Trp(1-CH2COOH)][NMeNle][NMeNle]L)) |
| 1 to 9.9 | CCCC[C@H]1C(=O)N(C)[C@@H](CCCC)C(=O)N[C@@H](CC(C)C)C(=O)NCCCCC(=O)N[C@@H](Cc2ccc(F)cc2)C(=O)N2CCCC[C@H]2C(=O)N[C@@H](CC(N)=O)C(=O)N2CCC[C@H]2C(=O)N[C@@H](CN)C(=O)N[C@@H](CCC(=O)O)C(=O)N2C[C@H](O)C[C@H]2C(=O)N[C@@H](Cc2c[nH]c3ccccc23)C(=O)N[C@@H](CCN)C(=O)N[C@@H](Cc2cn(CC(=O)O)c3ccccc23)C(=O)N1C [Example 10543] (cyclo([Ava][Phe(4-F)][Pip]NP[Dap]E[Hyp]W[Dab][Trp(1-CH2COOH)][NMeNle][NMeNle]L)) |
| 1 to 9.9 | CCCC[C@H]1C(=O)N(C)[C@@H](CCCC)C(=O)N[C@@H](CC(C)C)C(=O)NCCCCC(=O)N[C@@H](Cc2ccc(Cl)cc2)C(=O)N2CCCC[C@H]2C(=O)N[C@@H](CC(N)=O)C(=O)N2CCC[C@H]2C(=O)N[C@@H](CN)C(=O)N[C@@H](CCC(=O)O)C(=O)N2C[C@H](O)C[C@H]2C(=O)N[C@@H](Cc2c[nH]c3ccccc23)C(=O)N[C@@H](CCN)C(=O)N[C@@H](Cc2cn(CC(=O)O)c3ccccc23)C(=O)N1C [Example 10544] (cyclo([Ava][Phe(4-Cl)][Pip]NP[Dap]E[Hyp]W[Dab][Trp(1-CH2COOH)][NMeNle][NMeNle]L)) |
| 10 to 99 | CCCC[C@H]1C(=O)N(C)[C@@H](CCCC)C(=O)N[C@@H](CC(C)C)C(=O)NCCC[C@H](N)C(=O)N[C@@H](Cc2ccc(Cl)cc2)C(=O)N2CCCC[C@H]2C(=O)N[C@@H](CC(N)=O)C(=O)N2CCC[C@H]2C(=O)N[C@@H](CN)C(=O)N[C@@H](CCC(=O)O)C(=O)N2C[C@H](O)C[C@H]2C(=O)N[C@@H](Cc2c[nH]c3ccccc23)C(=O)N[C@@H](CCN)C(=O)N[C@@H](Cc2cn(CC(=O)O)c3ccccc23)C(=O)N1C [Example 10546] (H-[Orn][Phe(4-Cl)][Pip]NP[Dap]E[Hyp]W[Dab][Trp(1-CH2COOH)][NMeNle][NMeNle]L; lactam 1-C) |
| 10 to 99 | CCCC[C@H]1C(=O)N(C)[C@@H](CCCC)C(=O)N[C@@H](CC(C)C)C(=O)NCCC[C@H](N)C(=O)N[C@@H](Cc2ccc(C)cc2)C(=O)N2CCCC[C@H]2C(=O)N[C@@H](CC(N)=O)C(=O)N2CCC[C@H]2C(=O)N[C@@H](CN)C(=O)N[C@@H](CCC(=O)O)C(=O)N2C[C@H](O)C[C@H]2C(=O)N[C@@H](Cc2c[nH]c3ccccc23)C(=O)N[C@@H](CCN)C(=O)N[C@@H](Cc2cn(CC(=O)O)c3ccccc23)C(=O)N1C [Example 10547] (H-[Orn][Phe(4-Me)][Pip]NP[Dap]E[Hyp]W[Dab][Trp(1-CH2COOH)][NMeNle][NMeNle]L; lactam 1-C) |
